The nature of this data set: Triple helix self-assembly by CD spectroscopy. The class given is physicochemical.

Method: Circular dichroism (CD) spectroscopy was used to evaluate self-assembly of the triple helix for each of our collagen model peptides. […] The data from CD thermal denaturation experiments were fitted to a two-state model, as previously described.
Purified peptides were incubated in PBS buffer for at least 24 hours. […] The data from CD thermal denaturation experiments were fitted to a two-state model as previously described.^12,13 The melting temperatures (Tm), at which 50% of the triple helix unfolds, are listed next to the peptides in FIG. 11.
Resulting peptide 5 was purified by HPLC and incubated at a concentration of 0.2 mM in PBS buffer (pH 7) for 24 h.
Multiple aza-Proline residues: Finally, we determined the number of stereodynamic center (i.e., AzProHypGly trimer) that can be incorporated into a collagen model peptide without perturbing the triple-helix formation.

Consider (GPO)4, for which the “triple helix formation / self-assembly” value is on record as “does not”.

The record behind these values is patent publication US10174083B2, “Aza-amino acid collagen compounds” (The Trustees of the University of Pennsylvania, priority 2016, dated 2019).
